Test results as given in patent US9695155B2, “Herbicidal substituted pyrimidinyloxy benzene compounds” (E. I. DU PONT DE NEMOURS AND COMPANY, priority 2013, dated 2017).

Assays:
barnyardgrass [1] = test: Test A preemergence; assay type: in vivo, Echinochloa crus-galli; details: for Plant response rating, Barnyardgrass / Barnyardgrass plant response rating (0 to 100 scale, 0 is no effect, 100 is complete control): 125 g ai/ha; for Barnyardgrass plant response rating: 500 g ai/ha
How it was run: (§1)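 Injury scores run from 0, no effect, to 100, complete control, judged by eye against untreated plants roughly 10 days after treatment. Chemicals carried a surfactant in a non-phytotoxic solvent and went onto loam–sand soil preemergence or onto one- to two-leaf seedlings postemergence.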

large (Lg) crabgrass [2] = test: Test A preemergence; assay type: in vivo, Digitaria sanguinalis; details: for Plant response rating, Crabgrass, Large / Crabgrass, Large plant response rating (0 to 100 scale): 125 g ai/ha; for Crabgrass, Large plant response rating: 500 g ai/ha
How it was run: as §1

giant foxtail [3] = test: Test A preemergence; assay type: in vivo, Setaria faberii; details: for Plant response rating, Foxtail, Giant / Foxtail, Giant plant response rating (0 to 100 scale): 125 g ai/ha; for Foxtail, Giant plant response rating: 500 g ai/ha
How it was run: as §1

morningglory [4] = test: Test A preemergence; assay type: in vivo, Ipomoea spp.; details: for Plant response rating, Morningglory / Morningglory plant response rating (0 to 100 scale): 125 g ai/ha; for Morningglory plant response rating: 500 g ai/ha
How it was run: as §1

pigweed [5] = test: Test A preemergence; assay type: in vivo, Amaranthus retroflexus; details: for Plant response rating, Pigweed / Pigweed plant response rating (0 to 100 scale): 125 g ai/ha; for Pigweed plant response rating: 500 g ai/ha
How it was run: as §1

velvetleaf [6] = test: Test A preemergence; assay type: in vivo, Abutilon theophrasti; details: for Plant response rating, Velvetleaf / Velvetleaf plant response rating (0 to 100 scale): 125 g ai/ha; for Velvetleaf plant response rating: 500 g ai/ha
How it was run: as §1

wheat [7] = test: Test A preemergence; assay type: in vivo, Triticum aestivum; details: for Plant response rating, Wheat / Wheat plant response rating (0 to 100 scale): 125 g ai/ha; for Wheat plant response rating: 500 g ai/ha
How it was run: as §1

corn [8] = test: Test A preemergence; assay type: in vivo, Zea mays; details: for Plant response rating, Corn / Corn plant response rating (0 to 100 scale): 125 g ai/ha; for Corn plant response rating: 500 g ai/ha
How it was run: as §1

barnyardgrass [9] = test: Test A postemergence; assay type: in vivo, Echinochloa crus-galli
How it was run: as §1

large (Lg) crabgrass [10] = test: Test A postemergence; assay type: in vivo, Digitaria sanguinalis
How it was run: as §1

giant foxtail [11] = test: Test A postemergence; assay type: in vivo, Setaria faberii
How it was run: as §1

morningglory [12] = test: Test A postemergence; assay type: in vivo, Ipomoea spp.
How it was run: as §1

pigweed [13] = test: Test A postemergence; assay type: in vivo, Amaranthus retroflexus
How it was run: as §1

velvetleaf [14] = test: Test A postemergence; assay type: in vivo, Abutilon theophrasti
How it was run: as §1

wheat [15] = test: Test A postemergence; assay type: in vivo, Triticum aestivum
How it was run: as §1

corn [16] = test: Test A postemergence; assay type: in vivo, Zea mays
How it was run: as §1

rice = test: Test B flooded paddy test; assay type: in vivo, Oryza sativa; details: Flood, 250 g ai/ha; 0 to 100 scale where 0 is no effect and 100 is complete control
How it was run: (§2)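 Flooded to 3 cm at the 2-leaf stage, pots received compound through the paddy water and were kept at that depth under greenhouse conditions. After 13–15 days, effect was rated by eye relative to controls, 0 = none and 100 = complete control.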

sedge, umbrella = test: Test B flooded paddy test; assay type: in vivo, Cyperus difformis; details: Flood, 250 g ai/ha; 0 to 100 scale where 0 is no effect and 100 is complete control
How it was run: as §2

Heteranthera limosa = test: Test B flooded paddy test; assay type: in vivo; details: Flood, 250 g ai/ha; 0 to 100 scale where 0 is no effect and 100 is complete control
How it was run: as §2

barnyardgrass [17] = test: Test B flooded paddy test; assay type: in vivo, Echinochloa crus-galli; details: Flood, 250 g ai/ha; 0 to 100 scale where 0 is no effect and 100 is complete control
How it was run: as §2

[18] = 0 to 100 scale where 0 is no effect and 100 is complete control
[19] = 0 to 100 scale, 0 no effect, 100 complete control, approx. 10 days
[20] = 125 g ai/ha, 0 to 100 scale where 0 is no effect and 100 is complete control
[21] = 500 g ai/ha, 0 to 100 scale, 0 no effect, 100 complete control
[22] = 125 g ai/ha, 0 to 100 scale, 0 no effect, 100 complete control
[23] = 500 g ai/ha, 0 to 100 scale where 0 is no effect and 100 is complete control

FC(F)(F)c1ccc(Oc2ncc(Cl)cn2)c(-n2cc(Br)cn2)c1 [Compound 48]
0: Plant response rating, Barnyardgrass (barnyardgrass [1]; [18]) | Barnyardgrass plant response rating (barnyardgrass [1]; [19]) | Plant response rating, Morningglory (morningglory [4]; [18]) | Morningglory plant response rating (morningglory [4]; [19]) | Plant response rating, Pigweed (pigweed [5]; [18]) | Pigweed plant response rating (pigweed [5]; [19]) | Plant response rating, Velvetleaf (velvetleaf [6]; [18]) | Velvetleaf plant response rating (velvetleaf [6]; [19]) | Plant response rating, Wheat (wheat [7]; [18]) | Wheat plant response rating (wheat [7]; [19]) | Plant response rating, Corn (corn [8]; [18]) | Corn plant response rating (corn [8]; [19]) | Plant response rating, Barnyardgrass (barnyardgrass [9]; [20]) | Plant response rating, Foxtail, Giant (giant foxtail [11]; [20]) | Plant response rating, Velvetleaf (velvetleaf [14]; [20]) | Plant response rating, Wheat (wheat [15]; [20]) | Plant response rating, Wheat (wheat [15]; [21]) | Plant response rating, Corn (corn [16]; [20]) | Plant response rating, Corn (corn [16]; [21]) | Plant response rating, Rice (rice) | Plant response rating, Sedge, Umbrella (sedge, umbrella) | Plant response rating, Ducksalad (Heteranthera limosa) | Plant response rating, Barnyardgrass (barnyardgrass [17])
50: Plant response rating, Crabgrass, Large (large (Lg) crabgrass [2]; [18]) | Foxtail, Giant plant response rating (giant foxtail [3]; [19]) | Plant response rating, Pigweed (pigweed [13]; [21])
10: Plant response rating, Foxtail, Giant (giant foxtail [3]; [18]) | Plant response rating, Barnyardgrass (barnyardgrass [9]; [21]) | Plant response rating, Crabgrass, Large (large (Lg) crabgrass [10]; [20]) | Plant response rating, Velvetleaf (velvetleaf [14]; [21])
80: Crabgrass, Large plant response rating (large (Lg) crabgrass [2]; [19])
30: Plant response rating, Morningglory (morningglory [12]; [21])
20: Plant response rating, Crabgrass, Large (large (Lg) crabgrass [10]; [21]) | Plant response rating, Foxtail, Giant (giant foxtail [11]; [21]) | Plant response rating, Morningglory (morningglory [12]; [20]) | Plant response rating, Pigweed (pigweed [13]; [20])

COc1ccc(Oc2ncc(Br)cn2)c(-n2cc(Br)cn2)c1 [Compound 43]
10: Barnyardgrass plant response rating (barnyardgrass [1]; [19]) | Plant response rating, Crabgrass, Large (large (Lg) crabgrass [2]; [18]) | Plant response rating, Foxtail, Giant (giant foxtail [3]; [18]) | Plant response rating, Barnyardgrass (barnyardgrass [9]; [21]) | Plant response rating, Crabgrass, Large (large (Lg) crabgrass [10]; [20]) | Plant response rating, Corn (corn [16]; [21])
20: Foxtail, Giant plant response rating (giant foxtail [3]; [19]) | Pigweed plant response rating (pigweed [5]; [19]) | Plant response rating, Crabgrass, Large (large (Lg) crabgrass [10]; [21])
40: Plant response rating, Foxtail, Giant (giant foxtail [11]; [21]) | Plant response rating, Pigweed (pigweed [13]; [21])
60: Plant response rating, Velvetleaf (velvetleaf [14]; [20])
30: Plant response rating, Velvetleaf (velvetleaf [6]; [18]) | Plant response rating, Morningglory (morningglory [12]; [20]) | Plant response rating, Pigweed (pigweed [13]; [20])
0: Plant response rating, Barnyardgrass (barnyardgrass [1]; [18]) | Plant response rating, Morningglory (morningglory [4]; [18]) | Morningglory plant response rating (morningglory [4]; [19]) | Plant response rating, Pigweed (pigweed [5]; [18]) | Plant response rating, Wheat (wheat [7]; [18]) | Wheat plant response rating (wheat [7]; [19]) | Plant response rating, Corn (corn [8]; [18]) | Corn plant response rating (corn [8]; [19]) | Plant response rating, Barnyardgrass (barnyardgrass [9]; [20]) | Plant response rating, Foxtail, Giant (giant foxtail [11]; [20]) | Plant response rating, Wheat (wheat [15]; [20]) | Plant response rating, Wheat (wheat [15]; [21]) | Plant response rating, Corn (corn [16]; [20]) | Plant response rating, Rice (rice) | Plant response rating, Sedge, Umbrella (sedge, umbrella) | Plant response rating, Barnyardgrass (barnyardgrass [17])
75: Plant response rating, Ducksalad (Heteranthera limosa)
100: Plant response rating, Velvetleaf (velvetleaf [14]; [21])
50: Crabgrass, Large plant response rating (large (Lg) crabgrass [2]; [19]) | Velvetleaf plant response rating (velvetleaf [6]; [19]) | Plant response rating, Morningglory (morningglory [12]; [21])

CCOC(=O)c1cnn(-c2c(C#N)cccc2Oc2ncc(Br)cn2)c1 [Compound 294]
40: Plant response rating, Wheat (wheat [15]; [23]) | Plant response rating, Corn (corn [16]; [23])
60: Crabgrass, Large plant response rating (large (Lg) crabgrass [2]; [18]) | Plant response rating, Barnyardgrass (barnyardgrass [9]; [23]) | Plant response rating, Pigweed (pigweed [13]; [22]) | Plant response rating, Velvetleaf (velvetleaf [14]; [23])
100: Pigweed plant response rating (0 to 100 scale) (pigweed [5]) | Pigweed plant response rating (pigweed [5]; [18])
50: Plant response rating, Crabgrass, Large (large (Lg) crabgrass [10]; [23]) | Plant response rating, Foxtail, Giant (giant foxtail [11]; [23]) | Plant response rating, Velvetleaf (velvetleaf [14]; [22])
10: Velvetleaf plant response rating (0 to 100 scale) (velvetleaf [6]) | Plant response rating, Foxtail, Giant (giant foxtail [11]; [22])
30: Crabgrass, Large plant response rating (0 to 100 scale) (large (Lg) crabgrass [2]) | Foxtail, Giant plant response rating (0 to 100 scale) (giant foxtail [3]) | Plant response rating, Morningglory (morningglory [12]; [23])
90: Plant response rating, Pigweed (pigweed [13]; [23])
20: Barnyardgrass plant response rating (barnyardgrass [1]; [18]) | Plant response rating, Barnyardgrass (barnyardgrass [9]; [22]) | Plant response rating, Morningglory (morningglory [12]; [22])
70: Foxtail, Giant plant response rating (giant foxtail [3]; [18]) | Velvetleaf plant response rating (velvetleaf [6]; [18])
0: Barnyardgrass plant response rating (0 to 100 scale, 0 is no effect, 100 is complete control) (barnyardgrass [1]) | Morningglory plant response rating (0 to 100 scale) (morningglory [4]) | Morningglory plant response rating (morningglory [4]; [18]) | Wheat plant response rating (0 to 100 scale) (wheat [7]) | Wheat plant response rating (wheat [7]; [18]) | Corn plant response rating (0 to 100 scale) (corn [8]) | Corn plant response rating (corn [8]; [18]) | Plant response rating, Crabgrass, Large (large (Lg) crabgrass [10]; [22]) | Plant response rating, Wheat (wheat [15]; [22]) | Plant response rating, Corn (corn [16]; [22]) | Plant response rating, Rice (rice) | Plant response rating, Sedge, Umbrella (sedge, umbrella) | Plant response rating, Ducksalad (Heteranthera limosa) | Plant response rating, Barnyardgrass (barnyardgrass [17])

O=Cc1cccc(Oc2ncc(Cl)cn2)c1-n1cc(I)cn1 [Compound 182]
20: Barnyardgrass plant response rating (barnyardgrass [1]; [18]) | Foxtail, Giant plant response rating (giant foxtail [3]; [18])
100: Pigweed plant response rating (pigweed [5]; [18])
90: Pigweed plant response rating (0 to 100 scale) (pigweed [5]) | Plant response rating, Pigweed (pigweed [13]; [23])
30: Crabgrass, Large plant response rating (large (Lg) crabgrass [2]; [18]) | Pigweed plant response rating (pigweed [13]; [20]) | Velvetleaf plant response rating (velvetleaf [14]; [20]) | Plant response rating, Velvetleaf (velvetleaf [14]; [23])
0: Barnyardgrass plant response rating (0 to 100 scale, 0 is no effect, 100 is complete control) (barnyardgrass [1]) | Crabgrass, Large plant response rating (0 to 100 scale) (large (Lg) crabgrass [2]) | Foxtail, Giant plant response rating (0 to 100 scale) (giant foxtail [3]) | Morningglory plant response rating (0 to 100 scale) (morningglory [4]) | Morningglory plant response rating (morningglory [4]; [18]) | Velvetleaf plant response rating (0 to 100 scale) (velvetleaf [6]) | Velvetleaf plant response rating (velvetleaf [6]; [18]) | Wheat plant response rating (0 to 100 scale) (wheat [7]) | Wheat plant response rating (wheat [7]; [18]) | Corn plant response rating (0 to 100 scale) (corn [8]) | Corn plant response rating (corn [8]; [18]) | Barnyardgrass plant response rating (barnyardgrass [9]; [20]) | Plant response rating, Barnyardgrass (barnyardgrass [9]; [23]) | Crabgrass, Large plant response rating (large (Lg) crabgrass [10]; [20]) | Plant response rating, Crabgrass, Large (large (Lg) crabgrass [10]; [23]) | Foxtail, Giant plant response rating (giant foxtail [11]; [20]) | Plant response rating, Foxtail, Giant (giant foxtail [11]; [23]) | Morningglory plant response rating (morningglory [12]; [20]) | Plant response rating, Morningglory (morningglory [12]; [23]) | Wheat plant response rating (wheat [15]; [20]) | Plant response rating, Wheat (wheat [15]; [23]) | Corn plant response rating (corn [16]; [20]) | Plant response rating, Corn (corn [16]; [23]) | Plant response rating, Rice (rice) | Plant response rating, Sedge, Umbrella (sedge, umbrella) | Plant response rating, Ducksalad (Heteranthera limosa) | Plant response rating, Barnyardgrass (barnyardgrass [17])
